Where “and” joins values, the source holds several entries; their conditions need not be identical. Equal values may be shown once.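 Each compound was tested at five concentrations against cells in 96-well plates for 48 hours. GI50 marks 50% less growth. TGI: concentration producing complete growth inhibition.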
Columns and labels:
Assay in all cases: inhibition of tumour cell growth, NCI panel, 48 h
[1] = test system: A549 NSCLC
[2] = test system: HCT-116 colon
[3] = test system: LOX IMVI melanoma
[4] = test system: SNB-19 CNS
[5] = test system: SF-268 CNS
[6] = test system: SK-MEL-2 melanoma
[7] = test system: OVCAR-5 ovarian
[8] = test system: OVCAR-3 ovarian
[9] = test system: SR leukemia
[10] = test system: CAKI-1 renal

SMILES	GI50 [1] [µM]	TGI [1]	GI50 [2] [µM]	TGI [2]	GI50 [3] [µM]	TGI [3]	GI50 [4] [µM]	TGI [4]	GI50 [5] [µM]	TGI [5]	GI50 [6] [µM]	TGI [6]	GI50 [7] [µM]	TGI [7]	GI50 [8] [µM]	TGI [8]	GI50 [9] [µM]	TGI [9]	GI50 [10] [µM]	TGI [10]
ClCc1ccc(-c2ccc(Cn3cnc4c(Cl)ncnc43)cc2)cc1	4.31	17.4 µM	1.48	2.79 µM	1.33	3.01 µM	2.59	8.1 µM	1.13	3.51 µM	3.7	> 100 µM	2.31	6.01 µM	1.83	3.8 µM	2.51	> 100 µM	1.47	2.87 µM
O=C1Nc2c(ccc(Cl)c2Cl)/C1=C\c1cc(C(F)(F)F)cc(C(F)(F)F)c1	4.81	13 µM	1.41	5.07 µM	1.12	3.69 µM	5.7	19.3 µM	1.86	8.51 µM	4.11	10.9 µM	4.26	11.4 µM	1.1	4.27 µM	0.392	1.9 µM	0.399	7.85 µM
C=CNC(=S)n1nc(-c2ccccc2NC(=O)C(F)(F)F)c(=O)n(C(=S)NC=C)c1=S	–	> 1 µM	–	> 100 µM	–	> 100 µM	–	> 100 µM	–	46 µM	–	> 100 µM	–	> 100 µM	–	28.8 µM	–	73.7 µM	–	> 100 µM
COC(=O)C1=Cc2cn(S(=O)(=O)c3ccc(C)cc3)c3cccc(c23)C(C=C(C)C)N1C(C)=O (stereo not given)	–	> 100 µM	–	> 100 µM	–	> 100 µM	–	> 100 µM	–	> 100 µM	–	29.5 µM	–	> 100 µM	–	> 100 µM	–	> 100 µM	–	79.6 µM
COc1ccc2c(c1)C(=O)c1c-2c(OCCN2CCCCC2)nc2ccc(OC)cc12	0.674	2.16 µM	0.393	1.64 µM	0.42	1.73 µM	0.66	15.1 µM	0.461	9.46 µM	12.4	28.6 µM	3.74	19.7 µM	0.892	2.67 µM	0.235	1.25 µM	0.342	2.96 µM
CC(=O)Nc1ccc(Cc2ccc3[nH]c(=O)cc(C)c3c2)cc1	–	> 100 µM	–	> 100 µM	–	> 100 µM	–	> 100 µM	–	> 100 µM	–	77.7 µM	–	> 100 µM	–	> 100 µM	–	> 100 µM	–	> 100 µM
O=C(O)c1c[nH]c2c(ccc3[nH]cc(C(=O)O)c(=O)c32)c1=O	–	> 100 µM	–	> 100 µM	–	> 100 µM	–	> 100 µM	–	> 100 µM	–	> 100 µM	–	> 100 µM	–	> 100 µM	–	> 100 µM	–	> 100 µM
CNC(=O)c1cc(Oc2ccc3nc(NC(=O)Nc4cc(C(F)(F)F)cc(C(F)(F)F)c4)sc3c2)ccn1	1.3	2.67 µM	1.12	2.46 µM	1.21	2.53 µM	1.34	4.43 µM	1.27	2.86 µM	1.05	3.13 µM	1.55	3.52 µM	1.03	2.27 µM	0.514	2.6 µM	1.15	2.69 µM
O=C(c1ccccc1)c1c2n(c3c1cc(O)c1ccccc13)CCN2	14.2	35.5 µM	3.44	10.9 µM	2.7	6.87 µM	1.85	3.46 µM	3.19	9.85 µM	3.02	8.55 µM	0.72	7.91 µM	2.23	7.82 µM	1.06	3.46 µM	11.1	52.5 µM
N/C(=N\C(N)=N\c1nc2ccccc2s1)c1ccnc(Br)c1	22.1	> 100 µM	3.28	> 100 µM	4.27	> 100 µM	7.1	> 100 µM	5.88	> 100 µM	3.81	> 100 µM	62.3	> 100 µM	3.46	18.9 µM	2.9	> 100 µM	3.33	> 100 µM
COc1ccc(/C=C/C(=O)c2ccccc2)cc1OC	30.5	47.7 µM and > 100 µM	3.51	20.2 µM and 14.2 µM	3.32	28.1 µM and 14.6 µM	–	24.6 µM and 26.7 µM	19.7	36.7 µM and 64.9 µM	–	32.2 µM and 35.3 µM	21.4	33.5 µM and 44.1 µM	7.38	25.3 µM and 26.8 µM	–	> 100 µM and 58.3 µM	14.1	38.2 µM and 35.6 µM
Oc1[nH]c2ccccc2c1/C=c1/ccc2c(c1)N=C(c1cc(F)cc(F)c1)N=2	4.65	23.7 µM	2.43	8.06 µM	3.94	18.9 µM	9.62	28 µM	9.44	25.6 µM	5.71	20.8 µM	16.8	36.4 µM	5	17.9 µM	2.43	9.21 µM	2.47	15.1 µM
CCN(CC)CCNC(=O)C(Cl)=C1C(Cl)=C(Cl)C(Cl)=C1Cl	4.22	76.9 µM	1.78	4.4 µM	1.83	4.53 µM	10.9	29.6 µM	3.25	22 µM	3	11.6 µM	4.82	27.8 µM	2.45	7.45 µM	3.36	> 100 µM	2.73	> 100 µM
O=C(O)C1C2CCC(O2)C1C(=O)NCc1cccnc1 (stereo not given)	–	> 100 µM	–	> 100 µM	–	> 100 µM	–	> 100 µM	–	–	–	> 100 µM	–	> 100 µM	–	> 100 µM	–	> 100 µM	–	> 100 µM
C=CCn1c(=O)c(C(=O)NC(=O)OCC)cn(C2CCCCC2)c1=O	–	> 100 µM	–	> 100 µM	–	> 100 µM	–	> 100 µM	–	–	–	> 100 µM	–	> 100 µM	–	> 100 µM	–	> 100 µM	–	> 100 µM

Reference: PubChem BioAssay (NCI)
